Results from patent publication US20080182978A1, “ANTI-NGF ANTIBODIES AND METHODS USING SAME” (RINAT NEUROSCIENCE CORP, priority 2002, published 2008).
“Also recorded” adds a separate entry of the source.

T1: NT4/5 (Homo sapiens, UniProt P34130)
T1 sequence (P34130 81-210): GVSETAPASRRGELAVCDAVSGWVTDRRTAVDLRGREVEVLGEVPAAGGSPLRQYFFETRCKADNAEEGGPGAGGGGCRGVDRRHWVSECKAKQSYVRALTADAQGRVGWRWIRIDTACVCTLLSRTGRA


Legend:
[1] = tested on: complete Freund's adjuvant (CFA)-induced chronic arthritis; experiment: CFA-induced chronic arthritis in rats, vocalization test (Example 7); assay type: in vivo, rat
Text: The analgesic effects of anti-NGF antibody, 911 (see Hongo et al., Hybridoma 19(3):215-227 (2000)) in complete Freund's adjuvant (CFA)-induced chronic arthritis in rats were investigated using the vocalization test, in comparison with indomethacine used as reference substance.
Fifty (50) male Lewis rats (LEWIS LEW/Crl Ico) (Charles River Belgium) weighing 150 g to 220 g at the beginning of the experimental phase were included in this study. […]
On day 0 (D0), arthritis was induced in rats by intradermal injection into the tail of 0.05 ml of a Mycobacterium butyricum (Difco, USA) suspension in mineral oil (10 mg/ml). On day 14 (D14), arthritic rats were included in the study according to their ability to vocalize upon gentle flexion of the hindpaw and by their arthritis index, evaluated using an inflammation score for each hind and forepaw (see Kuzuna et al., Chem. Pharm. Bull. (Tokyo) 23:1184-1191 (1975); Pearson et al., Arthritis Rheum. 2:440-459 (1959)). Animals were scored based on the following criteria: Score 0: normal aspect; Score 1: erythema; Score 2: erythema with slight edema; Score 3: strong inflammation without ankylosis; Score 4: ankylosis. […]
Four groups of 10 rats each were included in the study. […] On day 18 (D18), the nociceptive intensity was evaluated by gentle flexion of the hindpaw and the intensity of the level of vocalization was recorded for each animal. […]

[2] = molecular target: LIF (Homo sapiens, UniProt P15018); experiment: Mouse E17 nodose neuron survival assay, LIF; assay type: cell-based; conditions: LIF 2.5 nM; antibody up to 200 nM; 48 hours
Chain of LIF (P15018 23-202, species assumed): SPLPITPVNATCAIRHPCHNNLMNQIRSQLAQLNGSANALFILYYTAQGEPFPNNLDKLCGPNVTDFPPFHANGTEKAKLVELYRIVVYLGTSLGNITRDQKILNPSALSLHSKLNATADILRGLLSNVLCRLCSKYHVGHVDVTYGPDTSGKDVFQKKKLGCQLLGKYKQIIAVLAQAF
Experimental: (§1) The ability of antibody E3 to specifically block NGF activity was also evaluated by measurement of the capacity of the antibody to inhibit survival of mouse nodose E17 neurons in the presence of saturating concentrations of BDNF or NT4/5. Survival of nodose neurons is supported by BDNF or NT4/5; therefore, survival of these neurons is a sensitive assay to evaluate the BDNF or NT4/5-blocking ability of the anti-NGF antagonist antibody.
(§2) The survival assay was conducted as follows: time mated pregnant Swiss Webster female mice were euthanised by CO2 inhalation. The uterine horns were removed and the embryos (at embryonic day 17 or 18) were extracted and decapitated. The trigeminal and nodose ganglia were dissected and cleaned. The ganglia were then trypsinised, mechanically dissociated and plated at a density of 100-300 cells per well in defined, serum-free medium in 4-well plates (Greiner) coated with poly-L-ornithine and laminin.
(§3) E17 nodose neurons were grown either in the absence of added neurotrophic factors (negative control), or with saturating concentrations of BDNF (400 pM) (positive control) or NT4/5 (400 pM) or NGF unrelated growth factor […]. High concentrations of neurotrophins were used, as the goal of this experiment was to test specificity of the antibodies. […]

[3] = molecular target: T1, NT4/5; experiment: Mouse E17 nodose neuron survival assay, NT4/5; assay type: cell-based; conditions: NT4/5 400 pM; antibody up to 200 nM; 48 hours
Experimental: as §1, §2, §3

Row | Molecule | Nociceptive intensity ([1]; 10 mg/kg orally at D18, measured one hour after dosing) [mV] | % variation of nociceptive intensity vs vehicle-treated group ([1]; 10 mg/kg orally at D18, one hour after dosing) [%] | survival of E17 nodose neurons promoted by LIF [2] | survival of E17 nodose neurons promoted by NT4/5 [3]
1 | COc1ccc2c(c1)c(CC(=O)O)c(C)n2C(=O)c1ccc(Cl)cc1 [Indomethacin, reference compound] | 145.8 ± 29.9 | −85 | – | –
2 | E3: humanized, affinity matured anti-NGF antagonist antibody; variable regions SEQ ID NO:1 and 2; human IgG2a (A330P331 to S330S331), kappa (antibody, V domains shown, human IgG2a constant (A330S/P331S) and kappa constant missing) VH: QVQLQESGPGLVKPSETLSLTCTVSGFSLIGYDLNWIRQPPGKGLEWIGIIWGDGTTDYNSAVKSRVTISKDTSKNQFSLKLSSVTAADTAVYYCARGGYWYATSYYFDYWGQGTLVTVS VL: DIQMTQSPSSLSASVGDRVTITCRASQSISNNLNWYQQKPGKAPKLLIYYTSRFHSGVPSRFSGSGSGTDFTFTISSLQPEDIATYYCQQEHTLPYTFGQGTKLEIKRT | – | – | had no effect; also recorded: did not inhibit | had no effect; also recorded: did not inhibit
